Experimental data published in US11072585B2 (PharmAkea, Inc., priority 2015, dated 2021).
pIC50: −log10 of the molar value. Structures can show the parent of a compound that is named as a salt.

Target: human LOXL2 (Homo sapiens (Human), UniProt Q9Y4K0)
Test: Human LOXL2 amine oxidase activity assay (Amplex Red)
Assay type: biochemical
Conditions: concentrated conditioned media from CHO cells stably expressing human LOXL2; 2 h at 37° C. with compound; DAP substrate
Protocol: Example B-1: Human LOXL2 Amine Oxidase Activity Assay
LOXL2 amine oxidase activity is evaluated by measuring Amplex Red fluorescence using 10-20× concentrated conditioned media from CHO cells stably expressing human LOXL2. To assay for amine oxidase activity, 10 μL of the concentrated conditioned media is incubated with 2 μL of test compound in DMSO and 73 μL Assay Buffer (50 mM Borate Buffer, pH8) for 2 h at 37° C. After the 2 h incubation, 5 ul of 10 mM 1,5-Diaminopentane (DAP) diluted in Assay Buffer and 10 μl of Amplex Red Mix (8.5 μl Assay Buffer+0.5 μl of 10 mM Amplex Red+1 μl of 500 U/ml Horseradish Peroxidase) are added and the plate mixed and immediately placed on the FlexStaion for fluorescence measurements. Fluorescence is read in kinetic mode every 2 min for 1 hour at excitation=544 and emission=590. The amine oxidase activity is calculated from the slope of the linear portion of the curve.

Chain of human LOXL2 (Q9Y4K0 26-774): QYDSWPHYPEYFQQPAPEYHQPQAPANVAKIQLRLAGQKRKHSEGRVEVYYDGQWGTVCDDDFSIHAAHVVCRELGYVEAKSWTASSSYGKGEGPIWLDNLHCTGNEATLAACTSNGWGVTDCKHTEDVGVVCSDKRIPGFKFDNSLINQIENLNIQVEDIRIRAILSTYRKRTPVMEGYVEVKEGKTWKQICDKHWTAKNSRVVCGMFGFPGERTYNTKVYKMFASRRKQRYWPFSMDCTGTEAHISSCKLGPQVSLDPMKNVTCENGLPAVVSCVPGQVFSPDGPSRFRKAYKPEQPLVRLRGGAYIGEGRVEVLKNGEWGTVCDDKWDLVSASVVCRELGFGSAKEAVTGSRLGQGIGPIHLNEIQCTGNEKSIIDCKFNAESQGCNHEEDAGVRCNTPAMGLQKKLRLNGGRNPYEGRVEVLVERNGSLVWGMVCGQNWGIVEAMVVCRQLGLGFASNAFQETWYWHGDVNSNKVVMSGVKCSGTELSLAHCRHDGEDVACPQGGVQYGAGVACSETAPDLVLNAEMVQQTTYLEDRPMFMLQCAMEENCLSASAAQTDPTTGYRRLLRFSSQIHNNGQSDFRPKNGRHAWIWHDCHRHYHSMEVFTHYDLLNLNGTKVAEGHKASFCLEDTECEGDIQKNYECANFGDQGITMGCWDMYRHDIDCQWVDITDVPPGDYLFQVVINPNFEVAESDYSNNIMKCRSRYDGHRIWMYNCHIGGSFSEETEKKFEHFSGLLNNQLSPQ

pIC50	Compound
> 6.52	NCc1cc(O[C@H]2CCCN(C(=O)Cc3ccc(Cl)c(Cl)c3)C2)nc(C(F)(F)F)c1 [Compound 1-47, (S)-1-(3-((4-(Aminomethyl)-6-(trifluoromethyl)pyridin-2-yl)oxy)piperidin-1-yl)-2-(3,4-dichlorophenyl)ethanone trifluoroacetate]
> 6.52	NCc1cc(Oc2cccc(C(=O)NCCN3CCOC3=O)c2)nc(C(F)(F)F)c1 [Compound 1-28, 3-((4-(Aminomethyl)-6-(trifluoromethyl)pyridin-2-yl)oxy)-N-(2-(2-oxooxazolidin-3-yl)ethyl)benzamide]
> 6.52	CS(=O)(=O)CCNC(=O)c1cccc(CNc2cc(CN)cc(C(F)(F)F)n2)c1 [Compound 1-106, 3-(((4-(Aminomethyl)-6-(trifluoromethyl)pyridin-2-yl)amino)methyl)-N-(2-(methylsulfonyl)ethyl)benzamide hydrochloride]
> 6.52	NCc1cc(Oc2cccc(-c3cn[nH]c3)c2)nc(C(F)(F)F)c1 [Compound 1-6, (2-(3-(1H-Pyrazol-4-yl)phenoxy)-6-(trifluoromethyl)pyridin-4-yl)methanamine trifluoroacetate]
6.00 to 6.52	NCc1cc(NCc2cccc(C(=O)N3CC[C@H](O)C3)c2)nc(C(F)(F)F)c1 [Compound 1-237, (S)-(3-(((4-(Aminomethyl)-6-(trifluoromethyl)pyridin-2-yl)amino)methyl)phenyl)(3-hydroxypyrrolidin-1-yl)methanone hydrochloride]
> 6.52	NCc1cc(Oc2cccc(C(=O)N3C[C@@H](F)[C@@H](O)C3)c2)nc(C(F)(F)F)c1 (racemic) [Compound 1-211, Racemic-cis-(3-((4-(aminomethyl)-6-(trifluoromethyl)pyridin-2-yl)oxy)phenyl)(3-fluoro-4-hydroxypyrrolidin-1-yl)methanone hydrochloride]
> 6.52	NCc1cc(Oc2cccc(C(=O)N3C[C@@H](F)[C@@H](O)C3)c2)nc(C(F)(F)F)c1 (single isomer, unassigned) [Compound 1-251, (R,S) or (S,R)-cis-(3-((4-(Aminomethyl)-6-(trifluoromethyl)pyridin-2-yl)oxy)phenyl)(3-fluoro-4-hydroxypyrrolidin-1-yl)methanone hydrochloride]
> 6.52	NCc1cc(O[C@H]2CCCN(C(=O)c3cccnc3)C2)nc(C(F)(F)F)c1 [Compound 1-49, (S)-(3-((4-(Aminomethyl)-6-(trifluoromethyl)pyridin-2-yl)oxy)piperidin-1-yl)(pyridin-3-yl)methanone trifluoroacetate]
> 6.52	NCc1cc(Oc2cccc(C(=O)N[C@H]3CCC[C@H]3O)c2)nc(C(F)(F)F)c1 [Compound 1-210, 3-((4-(Aminomethyl)-6-(trifluoromethyl)pyridin-2-yl)oxy)-N-((1S,2R)-2-hydroxycyclopentyl)benzamide hydrochloride]
> 6.52	CCc1cccc(NC(=O)c2cccc(Oc3cc(CN)cc(C(F)(F)F)n3)c2)c1 [Compound 1-245, 3-((4-(Aminomethyl)-6-(trifluoromethyl)pyridin-2-yl)oxy)-N-(3-ethylphenyl)benzamide hydrochloride]
> 6.52	NCc1cc(Oc2cncc(C(=O)N3CC[C@@H](N)C3)c2)nc(C(F)(F)F)c1 [Compound 1-54, (R)-(5-((4-(Aminomethyl)-6-(trifluoromethyl)pyridin-2-yl)oxy)pyridin-3-yl)(3-aminopyrrolidin-1-yl)methanone dihydrochloride]
> 6.52	NCc1cc(Oc2cccc(C(=O)Nc3nnco3)c2)nc(C(F)(F)F)c1 [Compound 1-228, 3-((4-(Aminomethyl)-6-(trifluoromethyl)pyridin-2-yl)oxy)-N-(1,3,4-oxadiazol-2-yl)benzamide hydrochloride]
> 6.52	NCc1cc(OCC2CCN(C(=O)Nc3ccccc3)CC2)nc(C(F)(F)F)c1 [Compound 1-42, 4-(((4-(Aminomethyl)-6-(trifluoromethyl)pyridin-2-yl)oxy)methyl)-N-phenylpiperidine-1-carboxamide trifluoroacetate]
> 6.52	NCc1cc(O[C@H]2CCCN(C(=O)Cc3ccccc3)C2)nc(C(F)(F)F)c1 [Compound 1-46, (S)-1-(3-((4-(Aminomethyl)-6-(trifluoromethyl)pyridin-2-yl)oxy)piperidin-1-yl)-2-phenylethanone trifluoroacetate]
> 6.52	NCc1cc(Oc2cccc(C(=O)NCCS(N)(=O)=O)c2)nc(C(F)(F)F)c1 [Compound 1-34, 3-((4-(Aminomethyl)-6-(trifluoromethyl)pyridin-2-yl)oxy)-N-(2-sulfamoylethyl)benzamide hydrochloride]
6.00 to 6.52	NCc1cc(Oc2cccc(C(=O)N3CCC[C@@H]3C(=O)O)c2)nc(C(F)(F)F)c1 [Compound 1-25, (R)-1-(3-((4-(Aminomethyl)-6-(trifluoromethyl)pyridin-2-yl)oxy)benzoyl)pyrrolidine-2-carboxylic acid hydrochloride]
> 6.52	NCc1cc(O[C@H]2CCCN(C(=O)c3cncnc3)C2)nc(C(F)(F)F)c1 [Compound 1-50, (S)-(3-((4-(Aminomethyl)-6-(trifluoromethyl)pyridin-2-yl)oxy)piperidin-1-yl)(pyrimidin-5-yl)methanone trifluoroacetate]
> 6.52	COCC1CN(C(=O)c2cccc(Oc3cc(CN)cc(C(F)(F)F)n3)c2)C1 [Compound 1-206, (3-((4-(Aminomethyl)-6-(trifluoromethyl)pyridin-2-yl)oxy)phenyl)(3-(methoxymethyl)azetidin-1-yl)methanone hydrochloride]

Compound	pIC50
NCc1cc(Oc2cccc(C(=O)NCCO)c2)nc(C(F)(F)F)c1 [Compound 1-16, 3-((4-(Aminomethyl)-6-(trifluoromethyl)pyridin-2-yl)oxy)-N-(2-hydroxyethyl)benzamide hydrochloride]	> 6.52
CN(C)[C@@H]1CN(C(=O)c2cccc(Oc3cc(CN)cc(C(F)(F)F)n3)c2)C[C@H]1O (racemic) [Compound 1-23, Racemic-trans-(3-((4-(aminomethyl)-6-(trifluoromethyl)pyridin-2-yl)oxy)phenyl)(-3-(dimethylamino)-4-hydroxypyrrolidin-1-yl)methanone hydrochloride]	> 6.52
NCc1cc(-c2cccnc2)nc(C(F)(F)F)c1 [Compound 1-1, (6-(Trifluoromethyl)-[2,3′-bipyridin]-4-yl)methanamine trifluoroacetate]	> 6.52
NCc1cc(Oc2cccc(C(=O)NCc3cc4ccccc4s3)c2)nc(C(F)(F)F)c1 [Compound 1-10, 3-((4-(Aminomethyl)-6-(trifluoromethyl)pyridin-2-yl)oxy)-N-(benzo[b]thiophen-2-ylmethyl)benzamide hydrochloride]	> 6.52
CS(=O)(=O)OC1CN(C(=O)c2cccc(Oc3cc(CN)cc(C(F)(F)F)n3)c2)CC1F (stereo not drawn) [Compound 1-214, hydrochloride]	> 6.52
NCc1cc(Oc2cccc(C(=O)N3CC[C@@H](N)C3)c2)nc(C(F)(F)F)c1 [Compound 1-22, (R)-(3-((4-(Aminomethyl)-6-(trifluoromethyl)pyridin-2-yl)oxy)phenyl)(3-aminopyrrolidin-1-yl)methanone dihydrochloride]	> 6.52
